The test system of series [1] is Mino. Description: Antimigratory activity against human Mino cells assessed as inhibition of S1P stimulated cell migration at 1.1 uM measured after 30 mins by Cell-titer Glo assay. Format: functional, cell-based.
Series [2] deals with Mino. Briefly: (§1) Antimigratory activity against human Mino cells assessed as inhibition of S1P stimulated cell migration at 10 uM measured after 30 mins by Cell-titer Glo assay relative to control. Format: functional.
The target of series [3] is T1, Dedicator of cytokinesis protein 2 (Homo sapiens, UniProt Q92608). Description: Inhibition of Rac1 binding to biotinylated DOCK2 (unknown origin) by ELISA. For orientation: An ELISA detects its analyte on a solid surface through an enzyme-linked reagent.
Series [4] has as its system Mino. Briefly: (§2) Antimigratory activity against human Mino cells assessed as inhibition of S1P stimulated cell migration at 3.3 uM measured after 30 mins by Cell-titer Glo assay relative to control. Format: functional.
Series [5] deals with T1, Dedicator of cytokinesis protein 2. Briefly: Inhibition of GST-fused Rac1 (unknown origin) binding to recombinant N-terminal trigger factor/C-terminal SBP-tagged DOCK2 DHR-2 binding domain (unknown origin) expressed in mammalian cells assessed as reduction in Rac GEF activity pretreated for 1 hr followed by GST-fused Rac1 addition after 1 hr by ELISA. In kind it is cell-based.

The nature of series [6]: as §1. In kind it is functional. The settings on record: 0.5 h.
Series [7] is described as follows: as §2. Conditions: 0.5 h. Format: functional.
Series [8] in a line: Drug uptake in HEK293T cells expressing luciferase reporter gene at 50 uM measured every 3 mins for 60 mins by luminescence assay relative to 50 uM luciferin. Format: ADME, cell-based. Conditions: human, hek-293t, 1 h.
The nature of series [9]: in vitro. The settings on record: human, HEK293T cells.
Description: Cytotoxicity against HEK293T cells assessed as cell viability at 6.3 uM by CellTiter-Glo assay relative to control
The nature of series [10]: Cytotoxicity against HEK293T cells assessed as cell viability at 50 uM by CellTiter-Glo assay relative to control. The settings on record: human.
Series [11] is described as follows: in vitro. Conditions: human, HEK293T cells. This is another data set of the same source.
Description: Cytotoxicity against HEK293T cells assessed as cell viability at 25 uM by CellTiter-Glo assay relative to control
A short description of series [12]: in vitro. The settings on record: human, HEK293T cells. This is another data set of the same source.
Description: Cytotoxicity against HEK293T cells assessed as cell viability at 12.5 uM by CellTiter-Glo assay relative to control
In series [13] the target is T1, Dedicator of cytokinesis protein 2. Description: Inhibition of Rac1 binding to DOCK2 (unknown origin) by ELISA.
Series [14] has the same target. Description: Inhibition of DOCK2 (unknown origin) GEF activity.

Calls of active or inactive are those of the source. No cut-off for these calls is given here. Positions of bridges follow the written chain, without caps; N, C: chain ends. Non-standard residues stand in square brackets, D forms with d. Residues, ends and D or L forms follow the SMILES beside them. *: point of attachment. X2 = CC(=O)[C@H]1CSC(c2nc3ccc(OC(=O)OCCCS*)cc3s2)=N1; Nle = CCCC[C@H](N)C(=O)O

As usually defined, the inhibition is the share of the control response that was lost under treatment. For orientation: IC50 means the concentration that inhibits the measured activity by half. Usually viability stands for a read-out of living cells in per cent, often relative to untreated cells.

T1 sequence (Q92608 whole entry): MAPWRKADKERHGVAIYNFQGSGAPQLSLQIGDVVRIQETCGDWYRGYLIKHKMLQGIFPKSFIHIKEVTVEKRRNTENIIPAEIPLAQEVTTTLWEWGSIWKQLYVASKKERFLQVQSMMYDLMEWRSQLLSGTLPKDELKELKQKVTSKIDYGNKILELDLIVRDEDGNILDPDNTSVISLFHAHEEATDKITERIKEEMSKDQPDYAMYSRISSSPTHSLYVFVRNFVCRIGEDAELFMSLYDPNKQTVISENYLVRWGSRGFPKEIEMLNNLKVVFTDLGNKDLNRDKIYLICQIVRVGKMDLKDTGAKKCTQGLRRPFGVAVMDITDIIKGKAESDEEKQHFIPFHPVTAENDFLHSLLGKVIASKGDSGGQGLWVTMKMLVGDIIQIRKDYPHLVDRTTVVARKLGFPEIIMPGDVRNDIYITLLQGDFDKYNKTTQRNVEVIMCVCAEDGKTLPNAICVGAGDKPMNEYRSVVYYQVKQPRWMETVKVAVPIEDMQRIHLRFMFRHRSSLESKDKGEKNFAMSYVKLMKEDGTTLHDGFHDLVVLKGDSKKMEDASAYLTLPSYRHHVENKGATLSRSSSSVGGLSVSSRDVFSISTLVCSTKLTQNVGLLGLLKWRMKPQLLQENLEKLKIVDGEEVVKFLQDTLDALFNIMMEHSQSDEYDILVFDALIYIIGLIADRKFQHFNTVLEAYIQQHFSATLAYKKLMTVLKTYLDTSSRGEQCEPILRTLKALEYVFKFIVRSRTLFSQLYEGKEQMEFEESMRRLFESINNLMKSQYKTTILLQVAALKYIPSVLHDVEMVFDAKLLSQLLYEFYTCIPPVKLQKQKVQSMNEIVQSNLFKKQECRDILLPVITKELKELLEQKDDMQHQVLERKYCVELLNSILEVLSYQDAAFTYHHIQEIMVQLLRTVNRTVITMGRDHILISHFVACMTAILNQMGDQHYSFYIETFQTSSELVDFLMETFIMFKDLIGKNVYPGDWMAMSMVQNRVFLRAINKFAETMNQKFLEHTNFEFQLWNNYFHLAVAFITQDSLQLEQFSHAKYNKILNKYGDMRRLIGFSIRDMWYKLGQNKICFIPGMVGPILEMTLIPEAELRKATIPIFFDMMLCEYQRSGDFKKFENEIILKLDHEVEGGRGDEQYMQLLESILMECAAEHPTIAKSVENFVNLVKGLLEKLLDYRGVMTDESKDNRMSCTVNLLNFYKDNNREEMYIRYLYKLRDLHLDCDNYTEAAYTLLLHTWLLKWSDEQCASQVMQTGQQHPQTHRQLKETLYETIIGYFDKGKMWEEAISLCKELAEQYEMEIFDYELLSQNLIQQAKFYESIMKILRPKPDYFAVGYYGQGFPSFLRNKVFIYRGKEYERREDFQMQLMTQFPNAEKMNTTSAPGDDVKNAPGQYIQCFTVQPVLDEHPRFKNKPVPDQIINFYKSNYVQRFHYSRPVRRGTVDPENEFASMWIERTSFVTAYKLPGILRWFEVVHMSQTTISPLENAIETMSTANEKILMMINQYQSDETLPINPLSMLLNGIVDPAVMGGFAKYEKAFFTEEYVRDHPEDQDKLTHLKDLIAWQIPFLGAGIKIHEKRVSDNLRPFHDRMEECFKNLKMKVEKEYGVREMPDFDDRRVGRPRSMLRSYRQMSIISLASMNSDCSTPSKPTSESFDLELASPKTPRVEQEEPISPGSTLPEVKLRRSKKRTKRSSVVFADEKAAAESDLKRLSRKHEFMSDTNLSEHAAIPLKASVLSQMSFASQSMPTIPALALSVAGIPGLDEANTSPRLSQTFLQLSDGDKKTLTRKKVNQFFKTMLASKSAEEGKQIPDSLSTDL

On to `CC(=O)N[C@H]1CSSC[C@@H](C(=O)N[C@@H](CCCNC(=N)N)C(=O)N[C@@H](CCCNC(=N)N)C(=O)N[C@@H](CCCNC(=N)N)C(N)=O)NC(=O)[C@H](Cc2c[nH]c3ccccc23)NC(=O)[C@@H]2CCCN2C(=O)[C@H](Cc2ccc(O)cc2)NC(=O)CNC(=O)[C@H](Cc2cnc[nH]2)NC(=O)[C@H](Cc2ccc(O)cc2)NC(=O)[C@H](CCCCN)NC(=O)[C@H](C)NC(=O)[C@H](C(C)C)NC1=O` (Ac-CVAKYHGYPWCRRR-NH2; disulfide 1-11), for which the inhibition entry in the series on Mino [1] and in the series with Mino [2] was “Active” throughout. The molecule further returned a half-inhibitory concentration (IC50) in series [3] of 11 nM.

In the case of `CC(=O)N[C@H]1CSSC[C@@H](C(=O)N[C@@H](CCCNC(=N)N)C(=O)N[C@@H](CCCNC(=N)N)C(=O)N[C@@H](CCCNC(=N)N)C(=O)N[C@@H](C)C(=O)N[C@@H](CC(C)C)C(=O)N[C@@H](Cc2c[nH]c3ccccc23)C(=O)N[C@@H](CCCCN)C(=O)N[C@H](C(=O)N[C@@H](CC(C)C)C(=O)N[C@@H](CC(C)C)C(=O)N[C@@H](CCCCN)C(=O)N[C@@H](CCCCN)C(=O)N[C@H](C(=O)N[C@@H](CC(C)C)C(=O)N[C@@H](CCCCN)C(=O)N[C@@H](C)C(=O)N2CCC[C@H]2C(=O)N[C@@H](CCCCN)C(=O)N[C@@H](CCCCN)C(=O)N[C@@H](CCCCN)C(=O)N[C@@H](CCCNC(=N)N)C(=O)N[C@@H](CCCCN)C(=O)N[C@H](C(N)=O)C(C)C)C(C)C)[C@@H](C)O)NC(=O)[C@H](Cc2c[nH]c3ccccc23)NC(=O)[C@@H]2CCCN2C(=O)[C@H](Cc2ccc(O)cc2)NC(=O)CNC(=O)[C@H](Cc2cnc[nH]2)NC(=O)[C@H](Cc2ccc(O)cc2)NC(=O)[C@H](CCCCN)NC(=O)[C@H](C)NC(=O)[C@H](C(C)C)NC1=O` (Ac-CVAKYHGYPWCRRRALWKTLLKKVLKAPKKKRKV-NH2; disulfide 1-11), the inhibition result with Mino [1] and in the series with Mino [4] was “Active” in each case. The IC50 in series [3] came to 71 nM.

`CCCC[C@H](NC(=O)[C@H](CCCNC(=N)N)NC(=O)[C@H](CCCNC(=N)N)NC(=O)[C@H](CC(N)=O)NC(=O)[C@H](CCC(N)=O)NC(=O)[C@H](Cc1ccccc1)NC(=O)[C@H](Cc1c[nH]c2ccccc12)NC(=O)[C@@H](NC(=O)[C@H](CCCCN)NC(=O)[C@@H](NC(=O)[C@H](CCC(N)=O)NC(=O)[C@H](CCCNC(=N)N)NC(=O)[C@H](CCCNC(=N)N)NC(=O)[C@H](CCCNC(=N)N)NC(=O)[C@H](CCCNC(=N)N)NC(=O)[C@@H]1CSSC[C@H](NC(C)=O)C(=O)N[C@@H](C(C)C)C(=O)N[C@@H](C)C(=O)N[C@@H](CCCCN)C(=O)N[C@@H](Cc2ccc(O)cc2)C(=O)N[C@@H](Cc2cnc[nH]2)C(=O)NCC(=O)N[C@@H](Cc2ccc(O)cc2)C(=O)N2CCC[C@H]2C(=O)N[C@@H](Cc2c[nH]c3ccccc23)C(=O)N1)[C@@H](C)CC)[C@@H](C)CC)C(=O)N[C@@H](CCCCN)C(=O)N[C@@H](Cc1c[nH]c2ccccc12)C(=O)N[C@@H](CCCCN)C(=O)N[C@@H](CCCCN)C(N)=O` (Ac-CVAKYHGYPWCRRRRQIKIWFQNRR[Nle]KWKK-NH2; disulfide 1-11): the inhibition result in the series on Mino [1] and with Mino [4] was “Active” throughout. The molecule also registered an IC50 in series [3] of 95 nM.

`O=C1NN(c2ccccc2)C(=O)/C1=C/C=C/c1ccccc1Cl`: the IC50 in [5] came out at 22800 nM.

With `CC(=O)N[C@H]1CSSC[C@@H](C(=O)N[C@@H](CCCNC(=N)N)C(=O)N[C@@H](CCCNC(=N)N)C(=O)N[C@@H](CCCNC(=N)N)C(=O)N[C@@H](CCCNC(=N)N)C(=O)N[C@@H](CCCNC(=N)N)C(=O)N[C@@H](CCCNC(=N)N)C(=O)N[C@@H](CCCNC(=N)N)C(=O)N[C@@H](CCCNC(=N)N)C(N)=O)NC(=O)[C@H](Cc2c[nH]c3ccccc23)NC(=O)[C@@H]2CCCN2C(=O)[C@H](Cc2ccc(O)cc2)NC(=O)CNC(=O)[C@H](Cc2cnc[nH]2)NC(=O)[C@H](Cc2ccc(O)cc2)NC(=O)[C@H](CCCCN)NC(=O)[C@H](C)NC(=O)[C@H](C(C)C)NC1=O` (Ac-CVAKYHGYPWCRRRRRRRR-NH2; disulfide 1-11), the inhibition result with Mino [1] is “Active”. The inhibition at 10 µM in series [6] is over 89%. Moreover, the inhibition at 3.3 µM in series [7] is over 89%. Also, the half-inhibitory concentration (IC50) in [3] worked out at 8 nM.

In the case of `CC(=O)N[C@H]1CSSC[C@@H](C(=O)N[C@@H](CCCNC(=N)N)C(=O)N[C@@H](CCCNC(=N)N)C(=O)N[C@@H](CCCNC(=N)N)C(=O)N[C@H](C(=O)N[C@@H](CCCNC(=N)N)C(=O)N[C@H](C(=O)N[C@@H](CC(C)C)C(=O)N[C@@H](CCCCN)C(=O)N[C@@H](CCCNC(=N)N)C(=O)N[C@@H](Cc2c[nH]c3ccccc23)C(=O)N[C@@H](CCCCN)C(=O)N[C@@H](CC(C)C)C(=O)N[C@@H](Cc2ccccc2)C(N)=O)C(C)C)[C@@H](C)O)NC(=O)[C@H](Cc2c[nH]c3ccccc23)NC(=O)[C@@H]2CCCN2C(=O)[C@H](Cc2ccc(O)cc2)NC(=O)CNC(=O)[C@H](Cc2cnc[nH]2)NC(=O)[C@H](Cc2ccc(O)cc2)NC(=O)[C@H](CCCCN)NC(=O)[C@H](C)NC(=O)[C@H](C(C)C)NC1=O` (Ac-CVAKYHGYPWCRRRTRVLKRWKLF-NH2; disulfide 1-11), the inhibition result with Mino [1] is “Active”. Besides, the inhibition at 10 µM in series [6] is over 89%. For the same molecule, the inhibition at 3.3 µM in [7] was over 89%. In series [3], this molecule returned a concentration for half-maximal inhibition (IC50) of 31 nM.

With `CC(=O)N[C@@H](CSSCCCOC(=O)Oc1ccc2nc(C3=N[C@@H](C(C)=O)CS3)sc2c1)C(=O)N[C@H]1CSSC[C@@H](C(=O)N[C@@H](CCCNC(=N)N)C(=O)N[C@@H](CCCNC(=N)N)C(=O)N[C@@H](CCCNC(=N)N)C(=O)N[C@H](C(=O)N[C@@H](CCCNC(=N)N)C(=O)N[C@H](C(=O)N[C@@H](CC(C)C)C(=O)N[C@@H](CCCCN)C(=O)N[C@@H](CCCNC(=N)N)C(=O)N[C@@H](Cc2c[nH]c3ccccc23)C(=O)N[C@@H](CCCCN)C(=O)N[C@@H](CC(C)C)C(=O)N[C@@H](Cc2ccccc2)C(N)=O)C(C)C)[C@@H](C)O)NC(=O)[C@H](Cc2c[nH]c3ccccc23)NC(=O)[C@@H]2CCCN2C(=O)[C@H](Cc2ccc(O)cc2)NC(=O)CNC(=O)[C@H](Cc2cnc[nH]2)NC(=O)[C@H](Cc2ccc(O)cc2)NC(=O)[C@H](CCCCN)NC(=O)[C@H](C)NC(=O)[C@H](C(C)C)NC1=O` (Ac-C(X2)CVAKYHGYPWCRRRTRVLKRWKLF-NH2; disulfide 2-12), in [8], the “fold change (FC)” value was found to be 66.8. Further, in “in vitro [9]”, the viability at 6.3 µM turned out to be 99.1%. Further, the viability at 50 µM in [10] amounted to 85.9%. Also, in the series “in vitro [11]”, the viability at 25 µM turned out to be 97.1%. The viability at 12.5 µM in the series “in vitro [12]” is 108%.

On to `CC(C)C[C@H](N)C(=O)N[C@@H](CC(N)=O)C(=O)N[C@@H](CCCNC(=N)N)C(=O)N[C@H]1CSSC[C@@H](C(=O)N[C@@H](CCCNC(=N)N)C(=O)N[C@@H](CCCNC(=N)N)C(=O)N[C@@H](CCCNC(=N)N)C(=O)O)NC(=O)[C@H](Cc2c[nH]c3ccccc23)NC(=O)[C@@H]2CCCN2C(=O)[C@H](Cc2ccc(O)cc2)NC(=O)CNC(=O)[C@H](Cc2cnc[nH]2)NC(=O)[C@H](Cc2ccc(O)cc2)NC(=O)[C@H](CCCCN)NC(=O)[C@H](C)NC(=O)[C@H](C(C)C)NC1=O` (H-LNRCVAKYHGYPWCRRR-OH; disulfide 4-14), for which the IC50 in series [13] is 6 nM; in series [14] it was 35 nM.
